Assay results published in PMC11471595, “Quality by design-based approach for the development of an analytical method for quantifying ponatinib in rat plasma” (Heliyon, 2024).
Where two headings read alike, the source gives them in different places.

Tests used:
[1] = In vivo pharmacokinetic study of ponatinib in rats (plasma by HPLC-FLD, non-compartmental analysis); design: species or system Male SD rats; settings: male, rat; for half-life: n = 3, read-out: T1/2 (terminal half-life) (converted)
Procedure: Animal experiments were conducted following the guidelines of the Korea Research Institute of Bioscience and Biotechnology (KRIBB-AEC-20309). Male SD rats (Koatech Inc.; Pyeongtaek, Gyeonggi, Republic of Korea) were acclimated to laboratory conditions for at least one week before experimentation. Animals were permitted ad libitum access to food and water, except during the 8 h fasting period before drug administration; however, water was continuously available.
Rats were administered ponatinib, prepared in a DMAC, cremophor EL, and 20 % HPβCD) in water (10:10:80) for intravenous (IV; 4 mg/kg) and oral administration (7.5 mg/kg). Blood samples (approximately 100 μL) were collected in lithium heparin-treated tubes through the jugular vein at 5, 15, and 30 min, and 1, 3, 6, 12, 24, 36, and 48 h for the IV group (n = 3) and at 30 min and 1, 2, 4, 6, 8, 12, 24, 36, and 48 h post-dose for the oral group (n = 3). The samples were centrifuged at 13,500×g for 10 min at 4 °C. Plasma was stored at −20 °C until analysis.
Plasma ponatinib concentrations were determined using the HPLC-FLD method developed in this study. Pharmacokinetic parameters were calculated using non-compartmental analysis via WinNonlin software (Pharsight Corporation, Mountain View, CA, USA). The key parameters were the area under the plasma concentration-time curve from zero to the last quantifiable time point (AUClast) and infinity (AUCinf), both of which were calculated using the linear trapezoidal method. The terminal half-life (T1/2) was derived from the elimination constant at the terminal phase (λ), and total clearance (CL) and the steady-state volume of distribution (Vss) were calculated. The maximum plasma concentration (Cmax) and time to reach Cmax (Tmax) were obtained directly from the plasma concentration-time graph. The oral bioavailability (F) was determined by dividing the dose-normalized AUCinf value following oral administration by that following IV administration.

[2] = Stability of ponatinib in rat plasma under storage conditions; assay type: in vitro ADME; settings: for Stability (%, mean ± SD): n = 3
Procedure: The stability of ponatinib in rat plasma was determined under various conditions using LQC and HQC samples in triplicate. The stability tests included bench-top exposure at room temperature for 2 h, long-term storage at −20 °C for 3 weeks, three freeze-thaw cycles, and 24-h autosampler storage at 10 °C. The stability of ponatinib was determined by comparing the measured concentrations with nominal values.

- bioavailability ([1]; SD, PO 7.5 mg/kg vs IV 4 mg/kg, dose-normalized AUCPO/AUCIV × 100, read-out: F (oral bioavailability)): 48.2 ± 3.9%
- AUC(0-inf) ([1]; IV 4 mg/kg, mean ± SD, n = 3): 6140 ± 750 ng·h/mL
- AUC(0-t) ([1]; IV 4 mg/kg, mean ± SD, n = 3): 6100 ± 730 ng·h/mL
- clearance ([1]; IV 4 mg/kg, mean ± SD, n = 3, read-out: CL (total clearance) (converted)): 10.9 mL/min/kg
- half-life ([1]; IV 4 mg/kg, mean ± SD): 6.84 ± 0.22 h
- Vd ([1]; IV 4 mg/kg, mean ± SD, n = 3, read-out: Vss (steady-state volume of distribution)): 5.39 ± 0.2 L/kg
- AUC(0-inf) ([1]; PO 7.5 mg/kg, mean ± SD, n = 3): 5520 ± 280 ng·h/mL
- AUC(0-t) ([1]; PO 7.5 mg/kg, mean ± SD, n = 3): 5400 ± 270 ng·h/mL
- Cmax ([1]; PO 7.5 mg/kg, mean ± SD, n = 3): 308 ± 11 ng/mL
- Tmax ([1]; PO 7.5 mg/kg, mean ± SD, n = 3): 5.34 ± 2.31 h
- half-life ([1]; PO 7.5 mg/kg, mean ± SD): 8.75 ± 0.67 h
- Stability (%, mean ± SD) ([2]; processed rat plasma, autosampler (10 °C for 24 h), HQC 800 ng/mL): 95.2 ± 11.1%
- Stability (%, mean ± SD) ([2]; processed rat plasma, autosampler (10 °C for 24 h), LQC 3 ng/mL): 93.4 ± 1.3%
- Stability (%, mean ± SD) ([2]; rat plasma, bench top (room temperature for 2 h), HQC 800 ng/mL): 91.5 ± 2.1%
- Stability (%, mean ± SD) ([2]; rat plasma, bench top (room temperature for 2 h), LQC 3 ng/mL): 108 ± 6%
- Stability (%, mean ± SD) ([2]; rat plasma, freeze-thaw (3 cycles), HQC 800 ng/mL): 92.1 ± 5.0%
- Stability (%, mean ± SD) ([2]; rat plasma, freeze-thaw (3 cycles), LQC 3 ng/mL): 89.1 ± 7.0%
- Stability (%, mean ± SD) ([2]; rat plasma, long term (−20 °C for 3 weeks), HQC 800 ng/mL): 96.4 ± 4.3%
- Stability (%, mean ± SD) ([2]; rat plasma, long term (−20 °C for 3 weeks), LQC 3 ng/mL): 93.1 ± 7.9%
- Stability, range over LQC and HQC ([2]; rat plasma, room temperature for 2 h): 91.5 % to 108
SMILES: Cc1ccc(C(=O)Nc2ccc(CN3CCN(C)CC3)c(C(F)(F)F)c2)cc1C#Cc1cnc2cccnn12 [ponatinib, Ponatinib]
